# From patent EP4671247A1, “SUBSTITUTED PYRAZOLOPYRIMIDINE COMPOUND AND PHARMACEUTICAL USE THEREOF” (Japan Tobacco Inc., priority 2023, dated 2024)
# Biological target: T1, NLRP3 inflammasome (Homo sapiens, UniProt Q96P20)
# T1 construct: host or cells: THP1-Null cells (PMA-differentiated, LPS-primed, nigericin-stimulated)
# Test: Evaluation of NLRP3 inflammasome inhibitory activity (inhibition of IL-1β production in LPS/Nigericin-stimulated THP1-Null cells, AlphaLISA)
# Format: cell-based
# Conditions: IL-1β production in THP1-Null cells; PMA, 1 µg/mL Lipopolysaccharides 3 hours, Nigericin 7.5 µmol/L 1.5 hours; read-out: IC50
# How it was run: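 THP1-Null cells were primed with 1 µg/mL LPS, then given test compound and stimulated with nigericin. IL-1β in the culture supernatant was quantified by AlphaLISA. Inhibition was calculated with blank wells set as 100% and control wells as 0%.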
# T1 sequence (Q96P20 whole entry): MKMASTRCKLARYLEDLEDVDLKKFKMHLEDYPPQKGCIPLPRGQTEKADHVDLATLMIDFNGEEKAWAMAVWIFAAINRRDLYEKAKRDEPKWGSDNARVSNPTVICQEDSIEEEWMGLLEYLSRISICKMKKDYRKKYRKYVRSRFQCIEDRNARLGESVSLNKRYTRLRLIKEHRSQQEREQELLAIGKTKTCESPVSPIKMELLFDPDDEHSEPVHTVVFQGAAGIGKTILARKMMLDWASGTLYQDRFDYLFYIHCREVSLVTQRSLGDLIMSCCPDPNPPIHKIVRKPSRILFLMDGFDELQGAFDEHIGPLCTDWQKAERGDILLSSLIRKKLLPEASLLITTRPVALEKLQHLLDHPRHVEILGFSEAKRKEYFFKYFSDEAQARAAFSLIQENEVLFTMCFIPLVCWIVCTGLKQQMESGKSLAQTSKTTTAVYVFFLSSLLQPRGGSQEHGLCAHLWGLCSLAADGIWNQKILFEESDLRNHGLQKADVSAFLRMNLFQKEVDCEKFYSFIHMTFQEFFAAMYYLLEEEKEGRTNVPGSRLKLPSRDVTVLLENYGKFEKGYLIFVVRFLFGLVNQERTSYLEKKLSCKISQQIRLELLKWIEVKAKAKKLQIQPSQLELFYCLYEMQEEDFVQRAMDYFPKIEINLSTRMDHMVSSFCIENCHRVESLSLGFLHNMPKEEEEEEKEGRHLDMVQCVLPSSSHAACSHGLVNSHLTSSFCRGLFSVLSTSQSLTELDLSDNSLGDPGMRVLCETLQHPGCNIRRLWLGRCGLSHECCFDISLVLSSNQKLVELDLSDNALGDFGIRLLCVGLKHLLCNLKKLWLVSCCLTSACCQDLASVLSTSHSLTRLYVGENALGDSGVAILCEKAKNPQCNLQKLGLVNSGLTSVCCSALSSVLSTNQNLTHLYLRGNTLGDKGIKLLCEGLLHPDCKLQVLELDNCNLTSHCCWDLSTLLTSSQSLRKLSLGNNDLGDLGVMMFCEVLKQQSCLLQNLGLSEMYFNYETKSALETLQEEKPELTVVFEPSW
row,Structure (SMILES),IC50
1,O=c1[nH]c(C2CC2)nc2nn(-c3ccc(C4CC4)cc3C(F)(F)F)cc12 [Example 198],11 nM
2,Cc1cc(C2CC2)cc(C)c1-n1cc2c(=O)[nH]c(C#N)nc2n1 [Example 199],240 nM
3,COCc1nc2nn(-c3c(C)cc(C(C)(F)F)cc3C)cc2c(=O)[nH]1 [Example 200],75 nM
4,Cc1cc(C2CC2)cc(C)c1-n1cc2c(=O)[nH]c(C(=O)NC3COC3)nc2n1 [Example 201],740 nM
5,Cc1cc(C(C)(F)F)cc(C)c1-n1cc2c(=O)[nH]c(COC(F)F)nc2n1 [Example 202],40 nM
6,Cc1cc(C2CC2)cc(C)c1-n1cc2c(=O)[nH]c(C(N)=O)nc2n1 [Example 203],290 nM
7,Cc1cc(C2CC2)cc(C)c1-n1cc2c(=O)[nH]c(C(=O)NCC(F)F)nc2n1 [Example 204],50 nM
8,CCNC(=O)c1nc2nn(-c3c(C)cc(C4CC4)cc3C)cc2c(=O)[nH]1 [Example 205],11 nM
9,CC(=O)c1nc2nn(-c3c(C)cc(C(C)(F)F)cc3C)cc2c(=O)[nH]1 [Example 206],360 nM
10,CNC(=O)c1nc2nn(-c3c(C)cc(C(C)(F)F)cc3C)cc2c(=O)[nH]1 [Example 207],270 nM
11,Cc1cc(C(C)(F)F)cc(C)c1-n1cc2c(=O)[nH]c(CCO)nc2n1 [Example 208],66 nM
12,Cc1cc(OC(F)F)cc(C)c1-n1cc2c(=O)[nH]c(CCO)nc2n1 [Example 209],25 nM
13,O=c1[nH]c(C2CC2)nc2nn(-c3cc4c(cc3Cl)OCCC4)cc12 [Example 211],27 nM

# Same assay, conditions: test compound at 24 µM; IL-1β production in THP1-Null cells
row,Structure (SMILES),inhibition at 24 µM
1,"COc1nc(C)nc2nn(-c3c(C)cc(Br)cc3C)cc12 [Example 210, 2-(4-bromo-2,6-dimethylphenyl)-4-methoxy-6-methyl-2H-pyrazolo[3,4-d]pyrimidine]",9%
